From US11945881B2, “Neoantigens expressed in ovarian cancer and their uses” (Janssen Biotech, Inc., priority 2020, dated 2024)

Legend:
[1] = tested on: CD4+ T cells; experiment: exogenous autologous normal donor restimulation assay, TNFα/IFNγ double positive CD4+ T cells by flow cytometry; format: cell-based, human; details: donor independent, peptide pool 10 μg/mL, healthy donors; for Fold change (CD4+) vs. DMSO: maximum CD4+ T-cell response (TNFα and IFNγ); for Frequency (TNFα + IFNγ + CD4 T cells): maximum CD4+ T-cell response
Procedure: (§1) The immunogenicity of neoantigens was assessed using the exogenous autologous normal donor restimulation assay. […] The lyophilized peptides were solubilized in 100% DMSO.
(§2) CD1c+ Dendritic Cells (CD1c+DC) isolated from human healthy PBMCs were thawed using media (IMDM (Gibco) supplemented with glutamine, HEPES, 5% human serum (Sigma), and 1× Pen-Strep). DC cells were resuspended in media supplemented with IL-4 (Peprotech, 20 ng/mL) and GM-CSF (Gibco, 20 ng/mL), plated in 6 well microplates, and rested overnight at 37° C. and 5% CO2 incubator. The following day, DC cells were counted and plated in a 96 well round bottom microplate at a concentration of 30,000 viable cells per well. Lyophilized neoantigen peptide pools (15-mer peptides with 8-mer overlapping peptide sequences) were solubilized in 100% DMSO with a stock concentration of 20 mg/mL Neoantigen peptides pools were added to DCs for a final concentration of 10 μg/mL and rested for 2 hours at 37° C. and 5% CO2 incubator. CEF Peptide Pool “Plus” (Cellular Technologies, Ltd.) was utilized as a positive control (each viral peptide at a final concentration of 4 ug/ml) and DMSO at the same final concentration (0.05%) as the experimental peptides was utilized as a negative control. After 2 hours, DC cells were irradiated with 50 gray of ionizing radiation. Autologous CD3+ Pan-T cells isolated from human normal PBMCs were thawed using media. Following irradiation, autologous Pan-T cells were added to the irradiated DCs at 300,000 viable cells per well. Human IL-15 (Peprotech) was added to all wells at final concentration of 10 ng/ml. Plates were incubated at 37° C. and 5% CO2 incubator for a total of 12 days. Media was refreshed every 2-3 days with IL-15 (R&D System, 10 ng/mL final concentration) and IL-2 (R&D systems, 10 IU/mL final concentration).
(§3) On Day 11, cells were re-stimulated with identical experimental peptide pools or controls, at same concentration as peptide stimulation on Day 1. Protein Inhibitor Cocktail (eBioscience) was added to every well and plate was incubated overnight for 14-16 hours at 37° C. and 5% CO2 incubator. On Day 12, cells were stained for surface and intracellular flow cytometry analysis. The cells were washed with PBS and stained with Live/Dead Fixable Aqua Dead Cell stain (Thermo-Fisher). Following the live/dead stain, cells were blocked using Biotin-Fre Fc Receptor Blocker (Accurate Chemical & Scientific Corp). Extracellular cellular flow panel ([…] per well in 50 μL) consisted of CD3 PerCP-Cy5.5 (Biolegend), CD4 BV421 (Biolegend), and CD8 APC-Cy7 (Biolegend). After extracellular staining, cells were fixed and permeabilized using Foxp3/Transcription Factor Staining Buffer Set (eBioscience) and stained for intracellular proteins (1:50 dilution) using TNFα FITC (R&D Systems) and IFNγ BV785 (Biolegend). Cells were washed and resuspended in stain buffer, analyzed, and recorded in a BD Celesta flow cytometer.
(§4) Flow cytometry analysis was conducted on FlowJo v10.6 software. Cells were gated on live, singlet, CD3+, CD4+ and CD8+ T cells. The CD8+ and CD4+ T cells were analyzed for TNFα and IFNγ expression.
(§5) The immunogenicity of neoantigens was first investigated in 9-16 healthy donors.

[2] = tested on: CD8+ T cells; experiment: exogenous autologous normal donor restimulation assay, TNFα/IFNγ double positive CD8+ T cells by flow cytometry; format: cell-based, human; details: for Fold change (CD8+) vs. DMSO: maximum CD8+ T-cell response (TNFα and IFNγ); for Fold change (CD8+) vs. DMSO / Frequency (TNFα + IFNγ + CD8 T cells): donor independent, peptide pool 10 μg/mL, healthy donors; for Frequency (TNFα + IFNγ + CD8 T cells): maximum CD8+ T-cell response; for Immunogenic (yes/no): positive if CD8+ and/or CD4+ double positive TNFα/IFNγ frequency >=3-fold over DMSO and at least 0.01%
Procedure: as §1, §2, §3, §4, §5

| Sequence | Fold change (CD4+) vs. DMSO [1] [fold] | Frequency (TNFα + IFNγ + CD4 T cells) [1] [%] | Fold change (CD8+) vs. DMSO [2] [fold] | Frequency (TNFα + IFNγ + CD8 T cells) [2] [%] | Immunogenic (yes/no) [2] |
| --- | --- | --- | --- | --- | --- |
| LCAISVDRCAALPARAPAPPRPARRPHRGLCAVRRPLGAPRRFVAVAVP [AS159, neoantigen, alternative splicing of DRD4] | 12.5 | 0.081 | 39.04 | 0.12 | Yes |
| LDLAGNARPCRSQSPTSSDQTPSVPSLGSPELPDGEEGGSPDGSPQESEQVRQGQHV [AS103, neoantigen, alternative splicing of GTF2IRD1] | 6.62 | 0.086 | 48.82 | 0.83 | Yes |
| LEEEFISEWRRCLLCSYLQW [AS63, neoantigen, alternative splicing of IMPG2] | 13.54 | 0.15 | 185.74 | 0.5 | Yes |
| LLFFVAGEVLRHEEFE [FUS15, neoantigen, gene fusion NXN->GLOD4] | 16.21 | 0.08 | 8.84 | 0.19 | yes |
| LLFPYNQLDLHLHRPSGSRKNEIHWDKCFSSED [AS68, neoantigen, alternative splicing of PKHD1L1] | 5.43 | 0.024 | 17.52 | 0.11 | Yes |
| LRLRPNRRRASSAQTAPTSSLSLWSGASRRRRPAGGHMWCTAGRPSSRSGQNLTGTCTMKPLAWETFPTCWAWWGTSWATQSGSGGMPSQAATASRCCWWWTTRWFASMARSMCRTMSSPS [AS1] | 16.77 | 0.15 | 29.8 | 0.57 | Yes |
| LRSLAGTYGRSPSPATRRKRSWSC [FUS25, neoantigen, gene fusion CLCF1->POLD4] | 16.49 | 0.059 | 2.79 | 0.048 | Yes |
| LSPGGACVDIDECDRQ [AS81, neoantigen, alternative splicing of FBN3] | 3.22 | 0.028 | 10.83 | 0.1 | Yes |
| MAGGVLRRLLCREPDRDGDKGASREETVVPLHIGDPVVLPGIGQCYSALF [FUS1, neoantigen, gene fusion TSTD1->F11R] | 5.43 | 0.011 | 2.79 | 0.06 | yes |
| MHRKLQARSPSLCTGHPPQAA [AS75, neoantigen, alternative splicing of TSPAN10] | 3.46 | 0.014 | 2.64 | 0.16 | Yes |
| MPGHGAICSGSSRQPD [AS82, neoantigen, alternative splicing of IMPG2] | 5.88 | 0.026 | 13.55 | 0.82 | Yes |
| MSQESDKNGLSSRSWMNTWILPEVL [AS102, neoantigen, alternative splicing of GRHL2] | 4.47 | 0.029 | 5.65 | 0.096 | Yes |
| NANSRLPEACEK [AS100, neoantigen, alternative splicing of FRYL] | 6.02 | 0.039 | 63.36 | 0.099 | Yes |
| NIEDVATEDGRHGGCHHGPGR [AS71, neoantigen, alternative splicing of SLC6A2] | 10.95 | 0.038 | 11.78 | 0.074 | Yes |
| NLQLLTQGYSGIWRYP [AS118, neoantigen, alternative splicing of SAMD12] | 5.25 | 0.034 | 2.42 | 0.038 | Yes |
| NYGNLFSLAGSLHFTA [AS89, neoantigen, alternative splicing of ZNF727] | 7.02 | 0.061 | 142.04 | 0.26 | Yes |
| PGHGAICREEV [AS62, neoantigen, alternative splicing of IMPG2] | 14.25 | 0.063 | 28.06 | 0.055 | Yes |
| PSLSTRLTSKDPQPLQSHYWGLIGNDPFLRSKKRVN [AS4, neoantigen, alternative splicing of MUC16] | 11.53 | 0.093 | 7.55 | 0.068 | Yes |
| PSPSTPNHSQQAICHPGRRP [AS105, neoantigen, alternative splicing of MPRIP] | 14.72 | 0.14 | 1.76 | 0.02 | Yes |
| PSSLPGPTGKYQSMVFGAWLMSVNISVYTLLEHG [AS140, neoantigen, alternative splicing of MUC16] | 79.1 | 0.14 | 115.04 | 0.22 | Yes |
| QATPSSILCFRLACLWLLRKGLLDLTW [AS15, neoantigen, alternative splicing of IMPG2] | 11.36 | 0.023 | 48.05 | 0.08 | Yes |
| QHLQQEACVTSAGKQS [AS19, neoantigen, alternative splicing of PLEKHG4B] | 5.69 | 0.06 | 182.29 | 0.7 | Yes |
| QLNLSETQFAQYAEIV [FUS2, neoantigen, gene fusion VAX2->ATP6V1B1] | 21.76 | 0.026 | 593.75 | 2.28 | yes |
| QTDFAYDSGKRLGWGRVACDQVFS [AS3, neoantigen, alternative splicing of ETV4] | 7.31 | 0.1 | 133.13 | 0.43 | Yes |
